Measurements taken from US20060276464A1, “Diarylsulfone sulfonamides and use thereof” (Wyeth, priority 2005, published 2006).
pIC50: −log10 of the molar value. Several values for one entry are separate records, joined by “and”; a condition that tells them apart may be missing. Identical values can stand only once. Like-named read-outs stand apart in the source and are kept apart here.

Tests used:
SFRP-1 [1] = molecular target: T1, SFRP-1 (Homo sapiens, UniProt Q8N474); assay: Cell-based assay for in vitro measurement of SFRP-1/SARP2 antagonist activity (U2OS cells co-transfected with 16x TCF-tk-Luciferase reporter, Wnt and hSFRP-1); details: U2OS;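 further: U2OS cells co-transfected with a TCF-tk luciferase reporter, a Wnt vector, hSFRP-1 or empty vector and CMV-βgal, luciferase luminescence read in cell lysates alongside βgal activity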
T1 sequence (Q8N474 32-314): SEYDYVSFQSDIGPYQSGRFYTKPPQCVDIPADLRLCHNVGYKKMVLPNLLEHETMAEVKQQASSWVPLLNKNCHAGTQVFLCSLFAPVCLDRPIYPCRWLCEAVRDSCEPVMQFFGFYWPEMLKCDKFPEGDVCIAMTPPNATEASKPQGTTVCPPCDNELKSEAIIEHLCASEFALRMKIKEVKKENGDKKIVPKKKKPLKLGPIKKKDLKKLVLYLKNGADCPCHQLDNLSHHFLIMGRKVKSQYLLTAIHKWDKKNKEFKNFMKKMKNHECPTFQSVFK

SFRP-1 [2] = molecular target: T1, SFRP-1; assay: Fluorescence polarization binding assay (competitive displacement of a probe compound from SFRP-1); details: fluorescence anisotropy, 45 nM SFRP-1, 20 nM probe;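 further: test compound competes with a fluorescent probe held by SFRP-1, seen as a drop in probe anisotropy after incubation in darkness, with anisotropy as function of rising compound dose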
[3] = read-out: Fold Induction with SFRP-1, Conc 15 μM, with SFRP-1, fold induction over SFRP-1 control, single dose
[4] = read-out: Fold Induction without SFRP-1, Conc 15 μM, without SFRP-1, single dose

fold induction at 15 µM (SFRP-1 [1]; [3]) | fold induction at 15 µM (SFRP-1 [1]; [4]) | pIC50 (SFRP-1 [2]) | Structure (SMILES)
1.7 | 1 | 5.59 | CC(C)c1ccc(S(=O)(=O)c2ccc(C(C)(C)C)cc2)cc1S(=O)(=O)NCCc1ccccn1 [Example 435, 5-[(4-tert-butylphenyl)sulfonyl]-2-isopropyl-N-(2-pyridin-2-ylethyl)benzenesulfonamide]
2.2 | 1 | 6.00 | CC(C)c1ccc(S(=O)(=O)c2ccc(C(C)(C)C)cc2)cc1S(=O)(=O)NCCCn1ccnc1 [Example 436, 5-[(4-tert-butylphenyl)sulfonyl]-N-[3-(1H-imidazol-1-yl)propyl]-2-isopropylbenzenesulfonamide]
2.2 | 1 | 5.30 | CC(C)c1ccc(S(=O)(=O)c2ccc(C(C)(C)C)cc2)cc1S(=O)(=O)NC1CCOCC1 [Example 437, 5-[(4-tert-butylphenyl)sulfonyl]-2-isopropyl-N-(tetrahydro-2H-pyran-4-yl)benzenesulfonamide]
2 | 0.9 | 5.70 | Cc1ccc(S(=O)(=O)c2ccc(C(C)(C)C)cc2)cc1S(=O)(=O)NCCCn1ccnc1 [Example 439, 5-[(4-tert-butylphenyl)sulfonyl]-N-[3-(1H-imidazol-1-yl)propyl]-2-methylbenzenesulfonamide]
1.8 | 1.1 | 5.52 | Cc1ccc(S(=O)(=O)c2ccc(C(C)(C)C)cc2)cc1S(=O)(=O)NC1CCOCC1 [Example 440, 5-[(4-tert-butylphenyl)sulfonyl]-2-methyl-N-(tetrahydro-2H-pyran-4-yl)benzenesulfonamide]
3.9 | 1 | 6.00 | CC(C)c1ccc(S(=O)(=O)c2ccc(F)cc2)cc1S(=O)(=O)NCCc1c[nH]cn1 [Example 442, 5-[(4-fluorophenyl)sulfonyl]-N-[2-(1H-imidazol-4-yl)ethyl]-2-isopropylbenzenesulfonamide]
2.5 | 1.1 | 6.22 | CC(C)c1ccc(S(=O)(=O)c2ccc(F)cc2)cc1S(=O)(=O)NC[C@H](C)c1ccccc1 [Example 443, 5-[(4-fluorophenyl)sulfonyl]-2-isopropyl-N-[(2R)-2-phenylpropyl]benzenesulfonamide]
2.9 | 1.2 | 5.96 | CC(C)c1ccc(S(=O)(=O)c2ccc(F)cc2)cc1S(=O)(=O)NCC1CCOCC1 [Example 445, 5-[(4-fluorophenyl)sulfonyl]-2-isopropyl-N-(tetrahydro-2H-pyran-4-ylmethyl)benzenesulfonamide]
2.3 | 1.1 | 5.70 | Cc1ccc(S(=O)(=O)c2ccccc2)cc1S(=O)(=O)NC1CCN(C(=O)OC(C)(C)C)CC1 [Example 446, tert-butyl 4-({[2-methyl-5-(phenylsulfonyl)phenyl]sulfonyl}amino)piperidine-1-carboxylate]
2 | 1.2 | 6.92 and 6.77 | Cc1ccc(S(=O)(=O)c2ccccc2)cc1S(=O)(=O)NC1CCN(S(=O)(=O)c2ccccc2)CC1 [Example 448, 2-methyl-5-(phenylsulfonyl)-N-[1-(phenylsulfonyl)piperidin-4-yl]benzenesulfonamide]
2.8 | 1.1 | 5.52 | Cc1ccc(S(=O)(=O)c2ccccc2)cc1S(=O)(=O)NC1CCN(C(=O)c2ccco2)CC1 [Example 449, N-[1-(2-furoyl)piperidin-4-yl]-2-methyl-5-(phenylsulfonyl)benzenesulfonamide]
4 | 1 | 6.40 and 6.70 and 6.52 | CC(C)c1ccc(S(=O)(=O)c2ccc(NCCC#N)cc2)cc1S(=O)(=O)NCCn1ccnc1 [Example 450, 5-({4-[(2-cyanoethyl)amino]phenyl}sulfonyl)-N-[2-(1H-imidazol-1-yl)ethyl]-2-isopropylbenzenesulfonamide]
3.8 | 1 | 6.70 | CCC(O)CNc1ccc(S(=O)(=O)c2ccc(C(C)C)c(S(=O)(=O)NCCn3ccnc3)c2)cc1 (stereo not drawn) [Example 452, 5-({4-[(2-hydroxybutyl)amino]phenyl}sulfonyl)-N-[2-(1H-imidazol-1-yl)ethyl]-2-isopropylbenzenesulfonamide]
4 | 1.1 | 6.52 | CC[C@H](C)C(CO)Nc1ccc(S(=O)(=O)c2ccc(C(C)C)c(S(=O)(=O)NCCn3ccnc3)c2)cc1 (stereo partly drawn) [Example 453, 5-[(4-{[(2S)-1-(hydroxymethyl)-2-methylbutyl]amino}phenyl)sulfonyl]-N-[2-(1H-imidazol-1-yl)ethyl]-2-isopropylbenzenesulfonamide]
3.2 | 1 | 6.30 | CC(C)c1ccc(S(=O)(=O)c2cccc(Cl)c2)cc1S(=O)(=O)NCCc1ccccn1 [Example 455, 5-[(3-chlorophenyl)sulfonyl]-2-isopropyl-N-(2-pyridin-2-ylethyl)benzenesulfonamide]
3.6 | 1 | 6.10 | COc1cccc(S(=O)(=O)c2ccc(C(C)C)c(S(=O)(=O)NCCc3ccccn3)c2)c1 [Example 456, 2-isopropyl-5-[(3-methoxyphenyl)sulfonyl]-N-(2-pyridin-2-ylethyl)benzenesulfonamide]
2.9 | 1 | 5.96 | COc1ccccc1S(=O)(=O)c1ccc(C(C)C)c(S(=O)(=O)NCCc2ccccn2)c1 [Example 457, 2-isopropyl-5-[(2-methoxyphenyl)sulfonyl]-N-(2-pyridin-2-ylethyl)benzenesulfonamide]
1.7 | 1 | 6.15 | CC(C)(C)c1ccc(S(=O)(=O)c2ccccc2)cc1S(=O)(=O)NCCc1ccccn1 [Example 461, 2-tert-butyl-5-(phenylsulfonyl)-N-(2-pyridin-2-ylethyl)benzenesulfonamide]
2.9 | 1 | 5.70 | COc1ccccc1C(=O)N1CCC(NS(=O)(=O)c2cc(S(=O)(=O)c3ccccc3)ccc2C)CC1 [Example 462, N-[1-(2-methoxybenzoyl)piperidin-4-yl]-2-methyl-5-(phenylsulfonyl)benzenesulfonamide]
2.9 | 1 | 6.15 | COc1cccc(C(=O)N2CCC(NS(=O)(=O)c3cc(S(=O)(=O)c4ccccc4)ccc3C)CC2)c1 [Example 463, N-[1-(3-methoxybenzoyl)piperidin-4-yl]-2-methyl-5-(phenylsulfonyl)benzenesulfonamide]
2.1 | 1 | 5.52 | COc1ccc(C(=O)N2CCC(NS(=O)(=O)c3cc(S(=O)(=O)c4ccccc4)ccc3C)CC2)cc1OC [Example 464, N-[1-(3,4-dimethoxybenzoyl)piperidin-4-yl]-2-methyl-5-(phenylsulfonyl)benzenesulfonamide]
1.9 | 1.1 | 5.40 | Cc1ccc(S(=O)(=O)c2ccccc2)cc1S(=O)(=O)NC1CCN(C(=O)c2cccc(C(F)(F)F)c2)CC1 [Example 465, 2-methyl-5-(phenylsulfonyl)-N-{1-[3-(trifluoromethyl)benzoyl]piperidin-4-yl}benzenesulfonamide]
1.7 | 1.1 | 5.77 | Cc1ccc(S(=O)(=O)c2ccccc2)cc1S(=O)(=O)NC1CCN(C(=O)c2ccc(Cl)cc2)CC1 [Example 466, N-[1-(4-chlorobenzoyl)piperidin-4-yl]-2-methyl-5-(phenylsulfonyl)benzenesulfonamide]
2.3 | 1 | 5.72 | COc1ccc(C(=O)N2CCC(NS(=O)(=O)c3cc(S(=O)(=O)c4ccccc4)ccc3C)CC2)cc1 [Example 467, N-[1-(4-methoxybenzoyl)piperidin-4-yl]-2-methyl-5-(phenylsulfonyl)benzenesulfonamide]
2 | 1.2 | 6.00 | Cc1ccc(C(=O)N2CCC(NS(=O)(=O)c3cc(S(=O)(=O)c4ccccc4)ccc3C)CC2)cc1 [Example 468, 2-methyl-N-[1-(4-methylbenzoyl)piperidin-4-yl]-5-(phenylsulfonyl)benzenesulfonamide]
2.1 | 1.1 | 5.66 | Cc1ccc(S(=O)(=O)c2ccccc2)cc1S(=O)(=O)NC1CCN(C(=O)C2CCCCC2)CC1 [Example 471, N-[1-(cyclohexylcarbonyl)piperidin-4-yl]-2-methyl-5-(phenylsulfonyl)benzenesulfonamide]
1.4 | 1 | 6.10 | CC(C)c1ccc(S(=O)(=O)c2cccc3c(N(C)C)cccc23)cc1S(=O)(=O)NCCc1ccccn1 [Example 474, 5-{[5-(dimethylamino)-1-naphthyl]sulfonyl}-2-isopropyl-N-(2-pyridin-2-ylethyl)benzenesulfonamide]
